Source: patent publication US20140221499A1, “NOVEL RODENT CONTROL AGENTS AND USES THEREOF” (priority 2011, published 2014)

Target: T1, mTAAR7f-SS (Mus musculus, UniProt Q5QD08, C133S/Y132S)
T1 construct: Full Taar coding regions were cloned into pcDNA3.1-(Invitrogen); Rho tag (first 20 aa of bovine rhodopsin + linker); expressed in transfected cells; host or cells: HEK293
T1 sequence (Q5QD08 1-358 Y132S/C133S): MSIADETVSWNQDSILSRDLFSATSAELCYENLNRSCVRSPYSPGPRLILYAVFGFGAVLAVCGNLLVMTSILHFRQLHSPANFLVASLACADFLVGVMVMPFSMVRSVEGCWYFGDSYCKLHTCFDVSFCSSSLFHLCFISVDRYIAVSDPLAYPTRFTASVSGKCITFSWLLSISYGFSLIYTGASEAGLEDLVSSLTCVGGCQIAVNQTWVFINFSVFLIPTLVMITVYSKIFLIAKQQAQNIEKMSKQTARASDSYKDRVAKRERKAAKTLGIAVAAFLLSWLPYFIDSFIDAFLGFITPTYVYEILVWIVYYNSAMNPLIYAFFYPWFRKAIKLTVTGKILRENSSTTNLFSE
Experiment: Reporter gene assay on mutant receptor mTAAR7f-SS
Format: cell-based
Details: mutant vs mTAAR7f
Method: To test this, we created mutant receptors in which sequences of mTAAR7e were swapped into mTAAR7f and vice versa. Position 132^3.37 is a tyrosine in mTAAR7f and the other three receptors that detect 10, but a serine in mTAAR7e and a cysteine in rTAAR7h, the two receptors that detect 6. Furthermore, position 133^3.38 is a cysteine in mTAAR7f but a serine in mTAAR7e and rTAAR7h. We altered positions 132^3.37 and 133^3.38 by mutation of mTAAR7e (‘mTAAR7e-YC’) and mTAAR7f (‘mTAAR7f-SS’) and examined odor responses of these mutants using the cellular reporter gene assay (FIG. 9).
TAAR functional assays. Full Taar coding regions were cloned into pcDNA3.1-(Invitrogen) with or without a 5′ DNA extension of 69 bp encoding the first 20 amino acids of bovine rhodopsin followed by a cloning linker ([…]). Point mutations were introduced in mTAAR7e and mTAAR7f by overlap extension PCR. Functional assays were performed as described (40, 42). Fluorescence was measured on an EnVision plate reader (Perkin Elmer) and SEAP activity graphed as relative fluorescence of a phosphatase substrate.

CN(C)C1CCCCC1 [ligand 10, N,N-dimethylcyclohexylamine]
reduced affinity of mTAAR7f-SS: ~100 fold
